Literature values in patent publication US20260174646A1, “Topical detergent composition comprising ascorbyl glucoside and ascorbyl palmitat” (Mitochon S.r.l., priority 2022, published 2026).

CCCCCCCCCCCCCCCC(=O)OC[C@H](O)[C@H]1OC(=O)C(O)=C1O [ascorbyl palmitate, Ascorbyl palmitate]
ability to release ascorbic acid into the epidermis (refs. [8,9]): reduced ability to release ascorbic acid into the epidermis | tissue levels of ascorbic acid when applied to the skin (topical application, ref. [7]): incapable of increasing tissue levels of ascorbic acid
